Test results published in PMC9814901, “One-pot synthesis of cyclic-aminotropiminium carboxylate derivatives with DNA binding and anticancer properties” (Communications Chemistry, 2022).

How the values were obtained:
[1] = test system: HeLa cells; test: Cell cycle analysis by flow cytometry (PI); type: cell-based; settings: 18 h, 6e 18 μM, 6j 19 μM, 6n 19 μM
Protocol: HeLa cells were cultured in 6 well plates with initial density 0.5 × 10^6 cells/well. These cells were treated with the IC50 concentration of 6n, 6j, and 6e compounds for 18 h. The cells were washed with 1X PBS and fixed with 70% ethanol. After washing, cells were resuspended in 500 μl PBS containing Propidium Iodide (PI) (500 μg/ml), RNase A (1X), and Triton X-100 (0.1%), and incubated for 30 min in the dark. Finally, the cells were analyzed by flow cytometry (BD Biosciences, CA, USA). The relative proportions of cells with DNA content G0–G1 (2n), S phase (>2n but <4n), and G2/M phase (4n) were acquired and analyzed using CellQuest Pro software (BD Biosciences).

[2] = MTS cell viability assay in HEK293; type: cell-based; settings: human, HEK293 cells, HEK293, 30 μM
Protocol: (§1) We investigated the effect of nine cATC derivatives (6b/6d/6e/6f/6i/6j/6k/6l/6n) on cell viability in cancer cell-line HeLa and transformed normal cell-line HEK293. We treated cells with the varying concentrations of the compounds ranging from 10 nM to 50 μM for 18 h (optimized).
(§2) MTS assay (CellTiter 96® AQueous One Solution Cell Proliferation Assay (Promega, USA) was used to determine the cell viability. HeLa and HEK293 cells (20,000 cells in each well) were plated in 96 well plate and treated with 6e, 6j, and 6n varying concentrations of the compounds ranging from 10 nM to 50 μM for 18 h. The assay was carried out according to the manufacturer’s instructions. Finally, the plate was read in Varioskan™ LUX multimode microplate reader (Thermo Fisher Scientific) at 490 nm.
(§3) Cell scavenging activity was calculated using the following formula:
(§4) OD(490nm) (control) – OD(490nm) (Test)/OD(490nm) (control) × 100%
(§5) Cell Viability of the cell was calculated using the following formula: […]

[3] = test system: HEK293 cells; test: MTS cell viability assay in HEK293; type: cell-based; settings: HEK293, 30 μM, 18 h
Protocol: as §1, §2, §3, §4, §5

[4] = test system: HeLa cells; test: Apoptosis analysis, FITC Annexin V / PI flow cytometry; type: cell-based; settings: IC50 concentration, 18 h
Protocol: The apoptotic effect of 6e, 6j, and 6n compounds on cancer cells was detected using FITC Annexin V Apoptosis Detection Kit I (BD Pharmingen™, NJ, USA) according to the manufacturer’s protocol. 0.5 × 10^6 […] HeLa cells were seeded in a 6-well plate and treated with IC50 concentrations for 18 h. Harvested cells were incubated with Annexin V FITC and PI PE-conjugated antibody and apoptosis was evaluated using FACSCalibur (BD Biosciences, CA, USA) flow cytometry. Data were analyzed using CellQuest Pro software (BD Biosciences).

[5] = test system: human genomic DNA; test: Agarose gel electrophoresis of human genomic DNA treated with cATC derivatives; type: binding; settings: 1% agarose gel; EtBr control
Text: (§6) Further, we examined the effect of cATC derivatives (6a/6e/6j/6n) on the ct-DNA duplex structure by circular dichroism (CD) studies. We recorded the CD spectra of ct-DNA with the increasing concentration of cATC derivatives (SM, Fig. S24). […] Next, we examined the binding site of cATC derivative (ligand) at the DNA duplex structure by using AutoDock-Vina, a well-reported computational docking program. We performed docking of cATC derivatives (6a/6d/6k) crystal structure (ligand) with dodecamer DNA duplex crystal structure (PDB ID-1BNA) as the receptor. Our docking results strongly support the non-covalent interaction of cATC derivatives (6a/6d/6k) at the DNA-minor groove with the binding affinity ~7.0 Kcal/mole, mostly hydrophobic interactions (SM, Figs. S25–7, Table S8). […] Overall, cATC derivatives non-covalently bind with DNA duplex through the non-intercalative mode without affecting the native duplex structure. Next, we examined the DNA binding affinity of cATC derivatives (6e/6j/6n) by gel-electrophoresis. The different concentrations of human genomic DNA were treated with EtBr (control) and cATC derivatives (6e/6j/6n) and ran on 1% agarose gel (SM, Fig. S28A–D). […] Further, the Microscale thermophoresis (MST) technique was used to calculate the binding affinities of cATC derivatives (6e/6j/6n) (20 µM) with varying concentrations of human genomic DNA (40 fM to 75 pM).

[6] = test system: ct-DNA duplex; test: Circular dichroism of ct-DNA with cATC derivatives; type: binding; settings: increasing concentration of cATC derivatives
Text: as §6

[7] = test system: HeLa cells; test: MTS cell viability assay in HeLa; type: cell-based; settings: for IC50: Homo sapiens
Protocol: as §1, §2, §3, §4, §5

[8] = MTS cell viability assay in HeLa; type: cell-based; settings: human, HeLa cells; HeLa, 50 μM, 18 h
Protocol: as §1, §2, §3, §4, §5

[9] = test system: HeLa cells; test: Scratch (wound healing) assay in HeLa; type: cell-based; settings: 6e 18 μM, 6j 19.23 μM, 6n 18.92 μM, 0 h to 24 h
Protocol: HeLa and HEK293 cells (0.25 × 10^6) were seeded into 12-well plates to grow in a monolayer for 24 h. A Scratch was made in the middle of the well using a sterile 200 µl pipette tip. The detached cells were removed by washing with 1x DPBS. The cell monolayers were treated for 18 h with 19 µM of 6n and 6j, and 18 µM of 6e with 10% DMEM. DMSO with 10% DMEM was used as a control. Images were collected at 0 h and 24 h under an inverted microscope (Ziess, Germany) at (4×) magnification. Cell migration was analyzed using ImageJ (NIH) software.

With Cc1cccc(C2C(C(=O)[O-])N(CCc3ccccc3)c3ccccc[c+]3N2Cc2ccccc2)c1 (stereo not shown) [Compound 6e] as the compound, how does the “cells in G2/M phase” value ([1]; control 24.36%) read?
Its value is 7.05%.

What about the “cells in S phase” value ([1]; control 28.84%) of the same compound?
The value was 34.61%.

What about the “cells in G0/G1 phase” value ([1]; control 46.78%) of the same compound?
The value was 58.33%.

What about the viability at 18 h, 30 µM [2] of the same compound?
The viability at 18 h, 30 µM was 38.8%.

And the Growth inhibition [3]?
Its Growth inhibition is 61.1%.

What about the “Late Apoptotic cells (FITC-AV+/PI+)” value ([4]; control 2.9 %) of the same compound?
The value was 15.6%.

And the “Early Apoptotic cells (FITC-AV+/PI-)” value ([4]; control 3.6 %)?
The value was 62.5%.

And the “cells entered into apoptotic phase” value ([4]; control 6.5%)?
Its value is 78.2%.

And the “visibility of DNA-bound compound on agarose gel under UV light” value [5]?
The value was “signal was equivalent to EtBr”.

And the “effect on B-type duplex CD spectrum of ct-DNA” value [6]?
Its value is “almost remained unchanged”.

What about the “effect on HeLa cell proliferation” value ([7]; 10 nM to 50 μM, 18 h) of the same compound?
The value was “retarded HeLa cell proliferation in a dose dependent manner”.

And the Cell scavenging ([7]; HeLa, 50 μM, 18 h)?
The Cell scavenging was 84.74%.

And the IC50 ([7]; HeLa, values given in rebuttal letter of peer review file)?
The IC50 was 25.4 µM.

And the IC50 ([7]; MTS, 18 h, cell line not named in the sentence (HeLa implied))?
Its IC50 is 25.3 µM.

And the viability at 18 h, 50 µM [8]?
Its viability at 18 h, 50 µM is 15.2%.

What about the “effect on cell migration in scratch wound” value [9] of the same compound?
The value was “inhibited cell migration significantly”.
